The subject of one data set is VCaP tumors. Briefly: Castration relapsed VCaP xenograft tumor model. The conditions noted are these: for Ki67 expression in relapsed VCaP tumors, single agent / tumor growth, single agent (combination study): enzalutamide 25 mg/Kg p.o. or Si-1 25 mg/Kg i.p. How it is done: Tumor volumes were determined twice weekly.
VCaP tumors were allowed to develop in intact SCID mice and the animals were castrated after tumors reached 80-100 mm^3 of size. […] Tumor proliferation and AR expression by IHC was also examined.
The VCaP tumor model was then used to validate the efficacy of combination therapy.

Data set [1] deals with AR. Briefly: AR expression by western blot in VCaP cells. The note with it: 3 days; for AR expression: western blot, 25 μM Si-1 or Si-2 or 20 μM enzalutamide alone. (A western blot detects proteins with antibodies after separation by electrophoresis.)
Procedure: (§1) The sensitivity of prostate cancer cells to STS inhibitors was tested using cell growth assays and clonogenic assays. Quantitative reverse transcription-PCR, and Western blotting were performed to detect expression levels of STS and AR. […] Steroid profile including DHEA and androgens was analyzed by Liquid Chromatography-Mass Spectrometry (LC-MS). STS activity was determined by 4-Methylumbelliferyl sulfate assay through a fluorescence microtiter plate reader. PSA secretion was determined by ELISA and PSA-luciferase activity was measured by reporter assay.
(§2) The AR expression was also determined by western blot.
A further data set deals with VCaP cells. Briefly: VCaP cell growth with or without enzalutamide. The conditions noted are these: 3 days; for VCaP cell growth, single agent: 10 μM or 25 μM Si-1 or Si-2, or 20 μM enzalutamide.
Another data set concerns the target T1, STS (Homo sapiens, UniProt P08842).
T1 construct: A VCaP tumor model that expresses endogenous STS was employed; endogenous in cells; host or cells: VCaP prostate cancer cells
T1 sequence (P08842 22-583): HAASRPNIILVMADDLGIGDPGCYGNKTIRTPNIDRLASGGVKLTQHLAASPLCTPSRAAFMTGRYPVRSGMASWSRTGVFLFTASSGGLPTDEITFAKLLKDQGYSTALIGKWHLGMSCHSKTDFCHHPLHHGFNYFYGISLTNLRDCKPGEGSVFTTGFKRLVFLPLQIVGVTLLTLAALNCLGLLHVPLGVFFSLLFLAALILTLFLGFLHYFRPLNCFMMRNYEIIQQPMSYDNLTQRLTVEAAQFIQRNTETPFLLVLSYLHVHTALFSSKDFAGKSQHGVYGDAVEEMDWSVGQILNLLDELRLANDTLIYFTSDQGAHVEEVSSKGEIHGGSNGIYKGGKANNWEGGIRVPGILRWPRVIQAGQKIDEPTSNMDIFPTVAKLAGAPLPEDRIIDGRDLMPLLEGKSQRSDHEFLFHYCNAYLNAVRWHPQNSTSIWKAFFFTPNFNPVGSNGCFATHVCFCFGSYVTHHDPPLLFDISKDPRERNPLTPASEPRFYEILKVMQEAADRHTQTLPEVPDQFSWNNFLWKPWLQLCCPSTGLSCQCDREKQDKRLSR
Briefly: STS enzymatic activity in VCaP cells (4-Methylumbelliferyl sulfate microtiter plate cellular assay, fluorescence readout). The data set is classed as cell-based. How it is done: VCaP cells were treated with 5 μM of different STSi, and STS activity was measured by microtiter plate cellular assay using fluorescence readout.
To evaluate the ability of STSi in inhibition of STS enzymatic activity, VCaP prostate cancer cells were treated with two synthesized STSi and STS enzymatic activity was measured. The activity assay was carried as described by Wolff, et al. (Anal Biochem, 2003. 318(2): p. 276-284). […] FIG. 3 shown the effects of other STSi on STS enzymatic activity in VCaP cells.

For data set [2], the system named is MCF-7, MDA-MB-468 and MDA-MB-231 cells. The data set can be described thus: Breast cancer cell growth (cell numbers counted). The data set is classed as cell-based. The conditions noted are these: different doses, 48 hrs.
For data set [3], the system named is AR. Briefly: PSA-luciferase reporter assay (AR transcriptional activity) in VCaP cells. Type of data set: cell-based.
Procedure: as §1, §2
Data set [4] concerns C4-2B, LNCaP, DU145, PC3, CWR22rv1 and VCaP cells. The data set can be described thus: Prostate cancer cell growth assay (cell numbers counted).
The next data set has as its system Wnt5A. Briefly: Wnt5A expression by Western blot in C4-2B MDVR cells. Type of data set: cell-based. The note with it: C4-2B MDVR cell lysates, different concentrations.
The subject of the next data set is CWR22-rv1 tumors. The data set can be described thus: CWR22-rv1 tumors in mice, combination treatment with Nic-S and enzalutamide.
In a further data set the test system is CWR22Rv1. The data set can be described thus: CWR22Rv1 cell number with Nic-S with or without enzalutamide or abiraterone acetate. The data set is classed as cell-based.
The conditions of data set [5]: cited from earlier work.
The conditions of data set [6]: in vivo; cited from earlier work.

Each structure is given as a SMILES string. “Also recorded” adds a separate entry of the source.

For `CNC(=O)c1ccc(N2C(=S)N(c3ccc(C#N)c(C(F)(F)F)c3)C(=O)C2(C)C)cc1F` [enzalutamide, reference compound], the “Ki67 expression in relapsed VCaP tumors, single agent” value in the data set on VCaP tumors (IHC) is recorded as “did not affect”. Also, the “tumor growth, single agent (combination study)” value in the data set with VCaP tumors (3 weeks) is given as “only slighted delayed”. Moreover, in the data set with AR [1], the AR expression entry is “decreased”. Moreover, in the data set on VCaP cells, the “VCaP cell growth, single agent” value is given as “slightly suppressed”.

Regarding `CCN(C(=O)C1=CCC2C3CCc4cc(OS(N)(=O)=O)ccc4C3CCC12C)C(C)C` (stereo not drawn) [Si-1], in the data set on VCaP tumors (25 mg/kg/d i.p., 3 weeks), the “AR staining / tumor AR expression in VCaP tumors (IHC)” value is reported as “significantly suppressed”, the “Ki67 staining in VCaP tumors (IHC)” value is “less” and the “tumor suppression compared with control” value is given as “around 60%”. Also, the “relapsed VCaP tumor growth / tumor progression” value in the data set with VCaP tumors (25 mg/kg/d i.p., castrated mice, 3 weeks) is “significantly suppressed; also recorded: significantly diminished”. The “decrease of serum PSA” value with VCaP tumors (3 weeks of treatment, control group 300 ng/mL PSA, ELISA) amounted to 50%. Besides, the “Ki67 expression in relapsed VCaP tumors, combination with enzalutamide” value in the data set with VCaP tumors (IHC, Si-1 plus enzalutamide) is given as “further lowered”. In the data set on VCaP tumors (IHC), the “Ki67 expression in relapsed VCaP tumors, single agent” value is given as “significantly decreased”. Further, in the data set on VCaP tumors (Si-1 25 mg/Kg i.p. plus enzalutamide 25 mg/Kg p.o., 3 weeks), the “tumor growth, combined with enzalutamide” value was “further suppressed”. Besides, in the data set with VCaP tumors (Si-1 25 mg/Kg i.p., 3 weeks), the “tumor weight, single agent (combination study)” value is listed as “significantly suppressed”. For the same molecule, in the data set on VCaP tumors (after 3 weeks treatment, 25 mg/kg/d i.p.), the tumor weight entry is recorded as “significantly decreased”. Further, in the data set on VCaP tumors (compared with control group, 25 mg/kg/d i.p.), the mice body weight result is “not affected”. For the same molecule, the “tumor growth, single agent (combination study)” value in the data set on VCaP tumors (3 weeks) was “significantly suppressed”. The STS activity entry at STS is “inhibited”. Moreover, the “AR expression, combination with enzalutamide” value in the data set with AR [1] (25 μM Si-1 or Si-2 with 20 μM enzalutamide) is reported as “completely suppressed”. For the same molecule, the AR expression entry in the data set on AR [1] is recorded as “significantly suppressed; also recorded: significantly decreased”. The “breast cancer cell growth (cell numbers)” value in data set [2] was “inhibits cell growth in a dose dependent manner”. Further, the AR transcriptional activity result with AR [3] was “significantly suppressed”. Further, the “growth of C4-2B and VCaP cells” value in data set [4] (C4-2B and VCaP cells) is on record as “inhibited”. For the same molecule, the “cell growth (cell numbers)” value in data set [4] (increasing doses, 48 hrs, C4-2B, LNCaP, DU145, PC3, CWR22rv1 and VCaP cells) is “inhibited cell growth in a dose dependent manner”. Moreover, in the data set on VCaP cells, the “VCaP cell growth, single agent” value is “reduced”. For the same molecule, the “VCaP cell numbers, combination with enzalutamide” value with VCaP cells (Si-1 or Si-2 with 20 μM enzalutamide) is given as “further reduced”.

With `NS(=O)(=O)Oc1ccc(Cl)cc1C(=O)Nc1ccc([N+](=O)[O-])cc1Cl` [Niclosamide sulfamate, niclosamide sulfamate], the Wnt5A expression entry in the data set on Wnt5A is given as “inhibit”; in the data set on Wnt5A (listed as Nic-S), “suppresses”. The toxicity entry in the data set with CWR22-rv1 tumors (body weight of mice bearing CWR22-rv1 tumors) is “without obvious toxicity”. Moreover, in the data set with CWR22-rv1 tumors (tumor volume, mice bearing CWR22-rv1 tumors), the “enhancement of enzalutamide treatment in vivo” value is listed as “synergistically enhance”. In addition, the “enhancement of Enza/AA treatment” value in the data set on CWR22Rv1 (0.5 μM Nic-S with 20 μM enzalutamide or 5 μM abiraterone acetate) is “synergistically enhances”. In addition, the “enhancement of enzalutamide treatment in vitro” value with CWR22Rv1 (0.5 μM Nic-S with 20 μM enzalutamide, 3 and 5 days) was “synergistically enhance”.

With `O=C(Nc1ccc([N+](=O)[O-])cc1Cl)c1cc(Cl)ccc1O` [Niclosamide, 2′,5-dichloro-4′-nitrosalicylanilide], the solubility entry in [5] is on record as “low”. In addition, in data set [6], the oral bioavailability result is recorded as “low”.

Values taken from US20210253628A1, “COMPOUNDS, COMPOSITIONS, AND METHODS FOR TREATMENT OF ANDROGEN-MEDIATED DISEASE” (The Regents of the University of California, priority 2018, published 2021).
